From patent US9169315B2, “Heparin cofactor II fragments with anti-inflammatory and anti-coagulant activity” (XIMMUNE AB, priority 2009, dated 2015)
No end group written: not given here.

What was measured:
RAW 264.7 macrophages = assay: NO production of stimulated macrophages (Griess reaction); type: cell-based, mouse; details: for NO production: stimulated with E. coli LPS, LTA, PGN, zymosan A; for NO-release of LPS-stimulated macrophages: E. coli or P. aeruginosa LPS, 10 ng/ml
Experimental: (§1) 3.5×10^5 cells were seeded in 96-well tissue culture plates (Nunc, 167008) in phenol red-free DMEM (Gibco) supplemented with 10% FBS and antibiotics. Following 6 hours of incubation to permit adherence, cells were stimulated with 10 ng/mL E. coli (0111:84) LPS (Sigma), lipoteichoic acid, peptioglycan, or zymosan, with and without peptides at the indicated doses (see figure legends and figures). The levels of NO in culture supernatants were determined after 24 hours from stimulation using the Griess reaction. Briefly, nitrite, a stable product of NO degradation, was measured by mixing 50 μl of culture supernatants with the same volume of Griess reagent (Sigma, G4410) and reading absorbance at 550 nm after 15 min. Phenol-red free DMEM with FBS and antibiotics were used as a blank. A standard curve was prepared using 0-80 μM sodium nitrite solutions in ddH20.
as §1, with “coli” for “coli (0111:84)”, “(0111:B4)” for “(Sigma), lipoteichoic acid, peptioglycan, or zymosan,”, “peptide of various doses.” for “peptides at the indicated doses (see figure legends and figures).”, “reaction (Pollock, Forstermann et al. 1991).” for “reaction.”

[1] = test system: intrinsic pathway of coagulation; assay: Activated partial thromboplastin time (aPTT); details: normal human plasma
Experimental: All clotting times were measured using an Amelung coagulometer. Activated partial thromboplastin time (aPTT) was measured by incubating the peptides diluted in sterile water at the indicated concentrations, with 100 μL citrated human plasma for 1 minute followed by the addition of 100 μL aPTT reagent (aPTT Automate, Diagnostica Stago) for 60 seconds at 37° C. Clotting was initiated by the addition of 100 μL of a 25-mM CaCl2 solution. In the prothombrin time assay (PT), clotting was initiated by the addition of 100 μL Thrombomax with calcium (PT reagent; Sigma-Aldrich). For measuring the thrombin clotting time (TCT), clotting was initiated by the addition of 100 μL Accuclot thrombin time reagent (TCT reagent; Sigma-Aldrich).
All clotting times were analyzed using a coagulometer (Amelung, Lemgo, Germany). The prothrombin time (PT) and the Thrombin clotting time (TCT) were measured as followed: Hundred microliter of fresh human citrate plasma together with indicated concentrations of NLF20 were pre-warmed for 60 sec at 37° C. before clot formation was initiated by adding 100 μl a clotting reagent. (PT-thromboplastin reagent (Trinity Biotech), TCT: Thrombin reagent (Technoclone)). To record the activated partial thromboplastin time (aPTT), 100 μl of a kaolin-containing solution (Technoclone) was add to the plasma-peptide mix and incubated for 200 sec before clot formation was initiated by adding 100 μl of 30 mM fresh CaCl2 solution.

E. coli 0111:B4 LPS = assay: LPS model in vivo (E. coli LPS-induced shock); design: species or system C57BL/6 mice; details: for Platelet counts / IFN-γ in blood / IL-10 in blood / IL-6 in blood / MCP-1 in blood / TNF-α in blood: 0.5 mg peptide; for Platelet counts: 8 and 20 h after LPS; for IFN-γ in blood / IL-6 in blood / MCP-1 in blood / TNF-α in blood: 8 and 20 h after LPS injection; for IL-10 in blood: 8 or 20 h after LPS injection; for Survival: 18 mg/kg E. coli LPS i.p., peptide i.p., followed 7 days; for Weight: followed for 7 days
Experimental: Septic shock in C57BL6 mice was induced by intraperitoneal injection of 18 mg/kg E. coli LPS. Sixty minutes later KYE28 and KYE21 (0.2 and 0.5 mg; in PBS) or buffer only was administered. […] (C) Peptide treatment affects the number of platelets in the LPS-induced shock model. (D) In separate experiments mice were injected with LPS followed by administration of 0.5 mg of KYE28 or KYE21, or buffer. Animals were sacrificed at 8 h, 20 h, or after 7 days and the number of platelets in blood counted using the VetScanSystem. […] Cytokines were measured in blood from animals sacrificed at 8 or 20 h after LPS injection. […] C57BL6 were i.p. injected with […] LPS followed by 0.5 mg of KYE28 After 20 h mice were sacrificed and cytokine levels in blood were determined. (KYE28; n=10). All data are representative of two independent experiment.
RAW 264.7 macrophages were stimulated with 10 ng/ml E. coli or P. aeruginosa LPS in combination with indicated concentrations NLF20. […] Clotting times were determined without (control) or with 20 μM of the peptide. Activated partial thromboplastin time (aPTT) was measured by incubating the peptides at the indicated concentrations in citrated human plasma for 1 minute followed by the addition of 100 μl aPTT reagent (aPTT Automate, Diagnostica Stago) for 60 seconds at 37° C. Clotting was initiated by the addition of CaCl2 solution. Results illustrating the prothombin time assay (PT) and thrombin clotting time (TCT) are also presented. (C) Septic shock in C57BL6 mice was induced by intraperitoneal injection of 18 mg/kg E. coli LPS. NLF20 (0.2 or 0.5 mg in 10 mM Tris, pH 7.4) or buffer only was administered. […] (E) Weight was followed for 7 days. […] In separate experiments mice were injected with LPS followed by administration of 0.5 mg of NLF20, or buffer. Animals were sacrificed at 8 h, 20 h, and survivors after 7 days and the number of platelets in blood counted using the VetScanSystem. (F) Administration of NLF20 (0.5 mg) selectively modulates the cytokine response compared to control mice. Cytokines were measured in blood from animals sacrificed at 8 or 20 h after LPS injection. (G) NLF abrogates inflammation in lungs. Lungs were analyzed by light microscopy after staining with hematoxylin-eosin, or analyzed by scanning electron microscopy 20 h after LPS injection i.p., followed by treatment with NLF20 (0.5 mg) or buffer.
(§2) Male C57BL/6 mice (8-10 weeks, 22+/−5 g), were injected intraperitoneally with 18 mg E. coli 0111:B4 LPS (Sigma) per kg of body weight. Thirty minutes after LPS injection, 0.5 mg KYE28, KYE21 or buffer alone was injected intraperitoneally into the mice. Survival and status was followed during seven days. For blood collection and histochemistry, mice were sacrificed 20 h after LPS challenge, and lungs were removed and fixed. These experiments were approved by the Laboratory Animal Ethics Committee of Malmö/Lund.
as §2, with “NLF20” for “KYE28, KYE21”

Q: Which “Concentration eliminating LPS-induced NO-responses” value (RAW 264.7 macrophages; 10 ng/ml E. coli or P. aeruginosa LPS) does the source give for NLFRKLTHRLFRRNFGYTLR [NLF20] here?
A: Its value is 20 to 40 µM.

Q: What about the NO production (RAW 264.7 macrophages) of the same sequence?
A: The NO production was “blocks NO production”.

Q: And the “Activated partial thromboplastin time (aPTT)” value [1]?
A: The value was “impaired the intrinsic pathway of coagulation”.

Q: What about the Platelet counts (E. coli 0111:B4 LPS) of the same sequence?
A: The Platelet counts was “significantly increased platelets”.

Q: What about the IFN-γ in blood (E. coli 0111:B4 LPS) of the same sequence?
A: The IFN-γ in blood was “significant reductions”.

Q: And the IL-10 in blood (E. coli 0111:B4 LPS)?
A: The IL-10 in blood was “an increase in IL-10 was observed after 8 h and 20 h”.

Q: And the Survival (E. coli 0111:B4 LPS)?
A: The Survival was “dramatic improvement on survival”.

Q: And the Weight (E. coli 0111:B4 LPS)?
A: Its Weight is “full recovery of weight”.

Q: How did the “NO-release of LPS-stimulated macrophages” value (RAW 264.7 macrophages) turn out when KYEITTIHNLFRKLTHRLFRR [KYE21] was run?
A: Its value is “significantly inhibited NO-release”.

Q: What about the NO production (RAW 264.7 macrophages) of the same sequence?
A: Its NO production is “blocks NO production”.

Q: What about the “Activated partial thromboplastin time (aPTT)” value [1] of the same sequence?
A: Its value is “only minor blocking of the aPTT”.

Q: What about the IFN-γ in blood (E. coli 0111:B4 LPS) of the same sequence?
A: The IFN-γ in blood was “significant reductions”.

Q: And the IL-6 in blood (E. coli 0111:B4 LPS)?
A: Its IL-6 in blood is “significant reductions”.

Q: What about the MCP-1 in blood (E. coli 0111:B4 LPS) of the same sequence?
A: Its MCP-1 in blood is “significant reductions”.

Q: What about the TNF-α in blood (E. coli 0111:B4 LPS) of the same sequence?
A: Its TNF-α in blood is “significant reductions”.

Q: And the IL-10 in blood (E. coli 0111:B4 LPS)?
A: The IL-10 in blood was “an increase in IL-10 was observed after 8 h”.

Q: What about the Survival (E. coli 0111:B4 LPS) of the same sequence?
A: Its Survival is “dramatic improvement on survival”.

Q: What about the Weight (E. coli 0111:B4 LPS) of the same sequence?
A: The Weight was “full recovery of weight”.

Q: Which results are given for KYEITTIHNLFRKLTHRLFRRNFGYTLR [KYE28]?
A: NO-release of LPS-stimulated macrophages (RAW 264.7 macrophages): significantly inhibited NO-release; NO production (RAW 264.7 macrophages): blocks NO production; Activated partial thromboplastin time (aPTT) [1]: impair the intrinsic pathway of coagulation; Platelet counts (E. coli 0111:B4 LPS): increased platelet levels after 20 h; IFN-γ in blood (E. coli 0111:B4 LPS): significant reductions; IL-6 in blood (E. coli 0111:B4 LPS): significant reductions; MCP-1 in blood (E. coli 0111:B4 LPS): significant reductions; TNF-α in blood (E. coli 0111:B4 LPS): significant reductions; IL-10 in blood (E. coli 0111:B4 LPS): an increase in IL-10 was observed after 8 h; Survival (E. coli 0111:B4 LPS): dramatic improvement on survival; Weight (E. coli 0111:B4 LPS): full recovery of weight
